In patent US11883526B2 (priority 2019, dated 2024):

System: patients with treatment-resistant depression (TRD)
Test: GAD-7 (Example 7)
Format: in vivo, human
Experimental: Overall illness severity was assessed on the Clinical Global Impression of Severity (CGI-S) scale (Guy, “ECDEU Assessment Manual for Psychopharmacology—Revised (DHEW Publ No ADM 76-338)”, Rockville, Md.: U.S. Department of Health, Education, and Welfare, Public Health Service, Alcohol, Drug Abuse, and Mental Health Administration, NIMH Psychopharmacology Research Branch, Division of Extramural Research Programs; 1976, pp 218-222). Participants assessed their severity of anxiety on the Generalized Anxiety Disorder 7-item (GADS-7) Scale (See, Tables 157 and 158). See, Spitzer, “A brief measure for assessing generalized anxiety disorder—the GAD-7”, Arch. Intern. Med., 2006, 166(10):1092-1097.

## CN[C@]1(c2ccccc2Cl)CCCCC1=O [esketamine, (S)-2-(2-chlorophenyl)-2-(methylamino)cyclohexanone]
Period 1, 28 mg
  GAD-7 change, LS mean difference from placebo (SE): −0.21 (1.461)
Period 1, 56 mg
  GAD-7 change, LS mean difference from placebo (SE): −1.40 (1.478)
Period 2, 56 mg
  GAD-7 change, LS mean difference from placebo (SE): 0.60 (1.033)
